Assay results from the supplement of paper PMC7661543.
± gives the standard deviation of the averaged measurements.

Assays:
Assay in all cases: relative cell number vs DMSO control (72 h) (% of DMSO); higher = less growth inhibition (more cells)
Conditions in all cases: sgRNA knockout: sgNT
BT-20 = test system: BT-20
Description: (§1)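 QMAP-Seq: a pool of 5 breast cancer cell lines (ZR-75-1, SKBR3, HCC-38, MDA-MB-231, BT-20), each carrying 12 doxycycline-inducible Cas9 sgRNA perturbations (11 knockouts plus non-targeting sgNT), was treated with compounds for 72 h at four 10-fold doses (10 nM-10 uM or 1 nM-1 uM range). Barcodes were amplified and sequenced, and cell number was interpolated from 293T spike-in standard curves. The result is expressed as % of the median of DMSO wells. Two biological replicates.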

HCC-38 = test system: HCC-38
Description: as §1

MDA-MB-231 = test system: MDA-MB-231
Description: as §1

SKBR3 = test system: SKBR3
Description: as §1

ZR-75-1 = test system: ZR-75-1
Description: as §1

| Structure (SMILES) | relative cell number (BT-20; 10 nM) | relative cell number (BT-20; 100 nM) | relative cell number (BT-20; 1000 nM) | relative cell number (BT-20; 10000 nM) | relative cell number (HCC-38; 10 nM) | relative cell number (HCC-38; 100 nM) | relative cell number (HCC-38; 1000 nM) | relative cell number (HCC-38; 10000 nM) | relative cell number (MDA-MB-231; 10 nM) | relative cell number (MDA-MB-231; 100 nM) | relative cell number (MDA-MB-231; 1000 nM) | relative cell number (MDA-MB-231; 10000 nM) | relative cell number (SKBR3; 10 nM) | relative cell number (SKBR3; 100 nM) | relative cell number (SKBR3; 1000 nM) | relative cell number (SKBR3; 10000 nM) | relative cell number (ZR-75-1; 10 nM) | relative cell number (ZR-75-1; 100 nM) | relative cell number (ZR-75-1; 1000 nM) | relative cell number (ZR-75-1; 10000 nM) | relative cell number (BT-20; 1 nM) | relative cell number (HCC-38; 1 nM) | relative cell number (MDA-MB-231; 1 nM) | relative cell number (SKBR3; 1 nM) | relative cell number (ZR-75-1; 1 nM) |
| --- | --- | --- | --- | --- | --- | --- | --- | --- | --- | --- | --- | --- | --- | --- | --- | --- | --- | --- | --- | --- | --- | --- | --- | --- | --- |
| C#Cc1cccc(Nc2ncnc3cc(OCCOC)c(OCCOC)cc23)c1 [Erlotinib] | 103 ± 8.8 | 82.9 ± 2.6 | 81.9 ± 2 | 82.9 ± 8.9 | 105 ± 3 | 87.3 ± 9.9 | 99.1 ± 6.6 | 94.8 ± 1.3 | 98.8 ± 11 | 83.4 ± 2.6 | 98.4 ± 8.8 | 83.6 ± 2.8 | 124 ± 20 | 97.3 ± 14 | 79 ± 12 | 43.6 ± 8.1 | 99 ± 27 | 63.2 ± 3.8 | 97 ± 18 | 84.2 ± 26 | – | – | – | – | – |
| CCOC(=O)[C@@]1(CCCCCCOc2ccc(Cl)cc2)CO1 [Etomoxir] | 97.7 ± 1 | 90.3 ± 13 | 122 ± 23 | 107 ± 9.7 | 94.85 ± 0.42 | 94.52 ± 0.29 | 107 ± 19 | 86.4 ± 3.9 | 120 ± 25 | 109 ± 1.7 | 114 ± 30 | 92.8 ± 19 | 80.7 ± 22 | 98.3 ± 11 | 86.5 ± 40 | 98.3 ± 36 | 67.6 ± 37 | 90.7 ± 8.2 | 75.46 ± 0.14 | 57.2 ± 7.3 | – | – | – | – | – |
| COc1cc([C@@H]2c3cc4c(cc3[C@@H](O[C@@H]3O[C@@H]5CO[C@@H](C)O[C@H]5[C@H](O)[C@H]3O)[C@H]3COC(=O)[C@H]23)OCO4)cc(OC)c1O [Etoposide] | 87 ± 6.6 | 83 ± 1.2 | 52.6 ± 0.56 | 36 ± 15 | 75.4 ± 33 | 84.8 ± 13 | 31.6 ± 5.3 | 20.5 ± 1.8 | 81.6 ± 3.5 | 71.7 ± 1.1 | 21.8 ± 1.8 | 11.9 ± 1.1 | 58 ± 10 | 50.1 ± 4.5 | 31.3 ± 9.5 | 12.6 ± 12 | 56 ± 2.7 | 54.5 ± 4.6 | 46.8 ± 4.2 | 31.5 ± 1.5 | – | – | – | – | – |
| CO[C@H]1C[C@@H]2CC[C@@H](C)[C@@](O)(O2)C(=O)C(=O)N2CCCC[C@H]2C(=O)O[C@H]([C@H](C)C[C@@H]2CC[C@@H](OCCO)[C@H](OC)C2)CC(=O)[C@H](C)/C=C(\C)[C@@H](O)[C@@H](OC)C(=O)[C@H](C)C[C@H](C)/C=C/C=C/C=C/1C [Everolimus] | 63.7 ± 4.2 | 49.5 ± 6.8 | 71.5 ± 5.7 | – | 59.2 ± 2.3 | 64.7 ± 2.1 | 59.7 ± 3.3 | – | 50.9 ± 14 | 87.5 ± 11 | 88.3 ± 6.2 | – | 67.6 ± 1.8 | 57.5 ± 21 | 70.7 ± 0.84 | – | 66.8 ± 8.4 | 58 ± 11 | 42.7 ± 18 | – | 56 ± 3.1 | 56.5 ± 4.8 | 76.3 ± 15 | 55.6 ± 18 | 69.7 ± 18 |
| C=C1C[C@@H]2[C@H](CC[C@]3(C)C(=O)CC[C@@H]23)[C@@]2(C)C=CC(=O)C=C12 [Exemestane] | 99.8 ± 6 | 89.5 ± 1.1 | 103 ± 5.9 | 95.4 ± 9.2 | 108 ± 28 | 92 ± 12 | 113 ± 3.1 | 109 ± 25 | 89.3 ± 13 | 88.2 ± 22 | 80.5 ± 6 | 69.8 ± 21 | 108 ± 22 | 93.4 ± 18 | 115 ± 9.4 | 102 ± 12 | 123 ± 22 | 82.5 ± 26 | 104 ± 67 | 99 ± 4.8 | – | – | – | – | – |
| CC(C)n1c(/C=C/C(O)CC(O)CC(=O)O)c(-c2ccc(F)cc2)c2ccccc21 (stereo not given) [Fluvastatin] | 67.8 ± 3.3 | 95 ± 7 | 97.3 ± 4.6 | 72.2 ± 16 | 110 ± 7.6 | 102 ± 6.7 | 96.6 ± 11 | 65.4 ± 2.2 | 108 ± 46 | 92.1 ± 46 | 30.8 ± 7.9 | 10.6 ± 3.6 | 64.9 ± 4 | 87.3 ± 1.6 | 82.5 ± 41 | 51 ± 34 | 78.2 ± 28 | 83.5 ± 20 | 62.6 ± 22 | 78.7 ± 1.4 | – | – | – | – | – |
| C[C@]12CC[C@@H]3c4ccc(O)cc4C[C@@H](CCCCCCCCC[S+]([O-])CCCC(F)(F)C(F)(F)F)[C@H]3[C@@H]1CC[C@@H]2O (stereo not given in full) [Fulvestrant] | 95.9 ± 6.4 | 79.5 ± 6.8 | 86.6 ± 16 | 110 ± 24 | 83.8 ± 12 | 102 ± 2 | 103 ± 6.4 | 94.5 ± 1.7 | 83.6 ± 3.7 | 93.5 ± 22 | 89.8 ± 4 | 92 ± 12 | 90.75 ± 0.73 | 48.8 ± 3.3 | 65.8 ± 26 | 65.9 ± 19 | 66.3 ± 28 | 41.9 ± 3.1 | 73.3 ± 26 | 84 ± 39 | – | – | – | – | – |
| OCCn1cc(-c2ccc3c(c2)CC/C3=N\O)c(-c2ccncc2)n1 [GDC0879] | 103 ± 17 | 112 ± 4.5 | 130 ± 8 | 110 ± 1.5 | 104 ± 17 | 124 ± 10 | 134 ± 12 | 107 ± 4.3 | 114 ± 15 | 92 ± 2.5 | 106 ± 4.8 | 105 ± 5.9 | 114 ± 27 | 151 ± 3.4 | 81.8 ± 29 | 110 ± 11 | 128.7 ± 1.1 | 137 ± 11 | 131 ± 12 | 122 ± 81 | – | – | – | – | – |
| CS(=O)(=O)N1CCN(Cc2cc3nc(-c4cccc5[nH]ncc45)nc(N4CCOCC4)c3s2)CC1 [GDC0941] | 106 ± 16 | 82.9 ± 45 | 59.6 ± 12 | 55.9 ± 24 | 94.3 ± 5.9 | 95 ± 5.9 | 79.2 ± 12 | 33.5 ± 0.44 | 126 ± 30 | 84 ± 21 | 66.3 ± 8.2 | 44.3 ± 12 | 96.1 ± 17 | 67.8 ± 33 | 38.6 ± 4.8 | 35.6 ± 8.4 | 94.4 ± 15 | 62.4 ± 20 | 52.5 ± 23 | 26.1 ± 8.7 | – | – | – | – | – |
| CC(C)(C)OC(=O)CN(Cc1ccc(Cl)cc1)Cc1ccc([N+](=O)[O-])s1 [GSK4112] | 73.6 ± 2 | 111 ± 14 | 94 ± 20 | 104 ± 3.4 | 78.9 ± 4.7 | 95.1 ± 11 | 95.8 ± 10 | 96.5 ± 11 | 82.6 ± 9.2 | 96.4 ± 7.3 | 82.9 ± 9.5 | 114 ± 40 | 87.6 ± 3.9 | 89 ± 20 | 66.5 ± 15 | 117 ± 11 | 100 ± 4.8 | 148 ± 35 | 86.4 ± 8.4 | 100 ± 29 | – | – | – | – | – |
| CCOC(=O)CCNc1cc(N2CCc3ccccc3CC2)nc(-c2ccccn2)n1 [GSKJ4] | 86.2 ± 8 | 105 ± 1.5 | 122 ± 12 | 52.7 ± 5.3 | 103 ± 7.2 | 98.1 ± 1.7 | 96.1 ± 22 | 60.8 ± 9.7 | 98.3 ± 30 | 123 ± 22 | 96.8 ± 44 | 34 ± 7.1 | 94.1 ± 37 | 104 ± 3.1 | 101 ± 9.6 | 88.8 ± 34 | 125 ± 56 | 113 ± 3.1 | 110 ± 7.2 | 33.4 ± 1.8 | – | – | – | – | – |
| CC(C)c1cc(-c2n[nH]c(=O)n2-c2ccc3c(ccn3C)c2)c(O)cc1O [Ganetespib] | 89.9 ± 2.6 | 44.8 ± 0.61 | 48.5 ± 11 | – | 94.7 ± 2.2 | 26.6 ± 1.2 | 18.5 ± 2.5 | – | 88.7 ± 21 | 13.7 ± 1.3 | 11.4 ± 7.9 | – | 75.4 ± 13 | 24.1 ± 5.2 | 30.5 ± 9.4 | – | 83.6 ± 40 | 18 ± 1.4 | 27.2 ± 3.3 | – | 96.6 ± 15 | 91 ± 2.5 | 88.2 ± 21 | 73.1 ± 28 | 96.883 ± 0.01 |
